In PubChem BioAssay AID1259408 (Genetic Toxicology Data Bank (GENE-TOX), 2018):
Calls of active or inactive are those of the source. How the calls were made is not given here.

Test system: GENE-TOX genotoxicity assays, various organisms and cells
Test: GENE-TOX mutagenicity studies
Conditions: for call: Assay Type: In vivo carcinogenicity studies, Assay Code: CCG+
[1] = Species/Cell Type: Mammalian polychromatic erythrocytes, Assay Type: Micronucleus test, chromosome aberrations, Assay Code: MNTT, Evaluation Type: Evaluation A (Pre-1980)
[2] = Species/Cell Type: Nonhuman, Evaluation Type: Evaluation A (Pre-1980)
[3] = Species/Cell Type: Saccharomyces cerevisiae, Assay Type: Mitotic recombination or gene conversion, Assay Code: YEH+, Evaluation Type: Evaluation A (Pre-1980)
[4] = Species/Cell Type: Salmonella typhimurium (one or more of the five standard strains: TA98, TA100, TA1535, TA1537, and TA1538), Assay Type: Histidine reverse gene mutation, Ames assay, Assay Code: SAL-, Evaluation Type: Evaluation A (Pre-1980)
[5] = Species/Cell Type: Salmonella typhimurium, Assay Type: Forward and reverse gene mutation, host-mediated assay, Assay Code: HMA+, Evaluation Type: Evaluation A (Pre-1980)
[6] = Species/Cell Type: Syrian hamster embryo (SHE) cells, Assay Type: Cell transformation, clonal assay, Assay Code: CTC+, Evaluation Type: Evaluation A (Pre-1980)
[7] = Species/Cell Type: Bacillus subtilis (H17 vs M45), Assay Type: Rec-assay, spot test, DNA effects (bacterial DNA repair), Assay Code: REW+, Evaluation Type: Evaluation A (Pre-1980)
[8] = Species/Cell Type: Drosophila melanogaster, Assay Type: Sex-linked recessive lethal gene mutation, Assay Code: SRLT, Evaluation Type: Evaluation A (Pre-1980)
[9] = Species/Cell Type: Salmonella typhimurium (one or more of the five standard strains: TA98, TA100, TA1535, TA1537, and TA1538), Assay Type: Histidine reverse gene mutation, Ames assay, Assay Code: SAL+, Evaluation Type: Evaluation A (Pre-1980)

Compound: C=CCc1ccc2c(c1)OCO2
- mutagenic call (Species/Cell Type: Drosophila melanogaster, Assay Type: Sex-linked recessive lethal gene mutation, Assay Code: SRL-, Evaluation Type: Evaluation A (Pre-1980)): inactive; negative
- mutagenic call (Species/Cell Type: Escherichia coli polA (W3110 vs P3478), Assay Type: Rec-assay, DNA effects (bacterial DNA repair), Assay Code: RE2+, Evaluation Type: Evaluation A (Pre-1980)): active; positive
- mutagenic call (Species/Cell Type: Escherichia coli polA (W3119 vs P3478), Assay Type: Rec-assay, DNA effects (bacterial DNA repair), Assay Code: RE1+, Evaluation Type: Evaluation A (Pre-1980)): active; positive
- mutagenic call (Species/Cell Type: Human diploid fibroblasts, Assay Type: Unscheduled DNA synthesis (UDS) in vitro, DNA effects, Assay Code: UDH-*, Activation: With metabolic activation, Evaluation Type: Evaluation A (Pre-1980)): inactive; negative
- mutagenic call [1]: no conclusion
- mutagenic call (Species/Cell Type: Mouse, Sex: Male, Assay Type: Sperm morphology, Assay Code: SPIT, Evaluation Type: Evaluation A (Pre-1980)): no conclusion
- call [2]: active; positive
- mutagenic call (Species/Cell Type: Nonhuman, Assay Type: Sister-chromatid exchange (SCE) in vitro, Assay Code: SC2+, Evaluation Type: Evaluation B (Post-1980)): active; positive
- mutagenic call [3]: active; positive
- mutagenic call [4]: inactive; negative
- mutagenic call [5]: active; positive
- mutagenic call [6]: active; positive
- mutagenic call (Species/Cell Type: Tradescantia species, Assay Type: Gene mutation, Assay Code: TRM+D, Dose Response: With dose response, Evaluation Type: Evaluation A (Pre-1980)): active; positive

Compound: Cc1cc(-c2ccc(N/N=C3/C(=O)c4c(N)cc(S(=O)(=O)O)cc4C=C3S(=O)(=O)O)c(C)c2)ccc1N/N=C1/C(=O)c2c(N)cc(S(=O)(=O)O)cc2C=C1S(=O)(=O)O
- mutagenic call [7]: active; positive
- call [2]: active; positive
- mutagenic call [4]: inactive; negative

Compound: c1ccc2c(c1)Cc1c(c3ccccc3c3ccccc13)C2
- mutagenic call (Species/Cell Type: Salmonella typhimurium (one or more of the five standard strains: TA98, TA100, TA1535, TA1537, and TA1538), Assay Type: Histidine reverse gene mutation, Ames assay, Assay Code: SAL+*, Activation: With metabolic activation, Evaluation Type: Evaluation A (Pre-1980)): active; positive

Compound: Cl.[Pt]
- mutagenic call (Species/Cell Type: Syrian hamster embryo (SA7/SHE) cells, Assay Type: Cell transformation, viral enhanced, Assay Code: CT7+, Evaluation Type: Evaluation A (Pre-1980)): active; positive

Compound: CN(N=O)C1=Nc2ccc(Cl)cc2C(c2ccccc2)=[N+]([O-])C1
- mutagenic call (Species/Cell Type: Saccharomyces cerevisiae, Assay Type: Mitotic recombination or gene conversion, Assay Code: YEC+*, Activation: With metabolic activation, Evaluation Type: Evaluation A (Pre-1980)): active; positive
- mutagenic call [5]: active; positive

Compound: NC(=O)/C(=C\c1ccc([N+](=O)[O-])o1)c1ccco1
- mutagenic call [7]: active; positive
- mutagenic call (Species/Cell Type: Chinese hamster lung (V79) cells, Assay Type: Forward gene mutation at the HPRT or ouabain locus, Assay Code: V79+, Evaluation Type: Evaluation A (Pre-1980)): active; positive
- mutagenic call [8]: no conclusion
- mutagenic call (Species/Cell Type: Escherichia coli WP2 UVRA, Assay Type: Tryptophan reverse gene mutation, Assay Code: WPU+D, Dose Response: With dose response, Evaluation Type: Evaluation A (Pre-1980)): active; positive
- mutagenic call (Species/Cell Type: Human diploid fibroblasts, Assay Type: Unscheduled DNA synthesis (UDS) in vitro, DNA effects, Assay Code: UDHT, Evaluation Type: Evaluation A (Pre-1980)): no conclusion
- mutagenic call (Species/Cell Type: Human, Assay Type: Sister-chromatid exchange (SCE) in vitro, Assay Code: SC1+D, Dose Response: With dose response, Evaluation Type: Evaluation B (Post-1980)): active; positive
- mutagenic call [1]: no conclusion
- mutagenic call (Species/Cell Type: Mouse lymphoma (L5178Y) cells, Assay Type: Forward gene mutation at the thymidine kinase (TK) locus, chromosome aberrations, Assay Code: L51+, Evaluation Type: Evaluation A (Pre-1980)): active; positive
- mutagenic call (Species/Cell Type: Mouse, Sex: Male, Assay Type: Sperm morphology, Assay Code: SPI-, Evaluation Type: Evaluation A (Pre-1980)): inactive; negative
- mutagenic call (Species/Cell Type: Neurospora crassa, Assay Type: Forward gene mutation, Assay Code: NEF+, Evaluation Type: Evaluation A (Pre-1980)): active; positive
- mutagenic call (Species/Cell Type: Neurospora crassa, Assay Type: Reverse gene mutation, Assay Code: NER+, Evaluation Type: Evaluation A (Pre-1980)): active; positive
- call [2]: active; positive
- mutagenic call (Species/Cell Type: Nonhuman, Assay Type: Sister-chromatid exchange (SCE) in vitro, Assay Code: SC2+D, Dose Response: With dose response, Evaluation Type: Evaluation B (Post-1980)): active; positive
- mutagenic call (Species/Cell Type: Rodents, Sex: Male, Assay Type: Dominant lethal test, Assay Code: DLT-, Evaluation Type: Evaluation A (Pre-1980)): inactive; negative
- mutagenic call (Species/Cell Type: Saccharomyces cerevisiae, Assay Type: Mitotic recombination or gene conversion, Assay Code: YEC+, Evaluation Type: Evaluation A (Pre-1980)): active; positive
- mutagenic call [3]: active; positive
- mutagenic call (Species/Cell Type: Saccharomyces cerevisiae, Assay Type: Reverse gene mutation, Assay Code: YER+, Evaluation Type: Evaluation A (Pre-1980)): active; positive
- mutagenic call [9]: active; positive
- mutagenic call [6]: active; positive

Compound: O=P(OCC(Br)CBr)(OCC(Br)CBr)OCC(Br)CBr (configuration not stated)
- mutagenic call (Species/Cell Type: Chinese hamster lung (V79) cells, Assay Type: Forward gene mutation, host-mediated assay, Assay Code: HMG+, Evaluation Type: Evaluation A (Pre-1980)): active; positive
- mutagenic call (Species/Cell Type: Drosophila melanogaster, Assay Type: Sex-linked recessive lethal gene mutation, Assay Code: SRL+, Evaluation Type: Evaluation A (Pre-1980)): active; positive
- mutagenic call (Species/Cell Type: Drosophila melanogaster, Sex: Male, Assay Type: Heritable translocation test, chromosome aberrations, Assay Code: DHT+, Evaluation Type: Evaluation A (Pre-1980)): active; positive
- mutagenic call (Species/Cell Type: Human, Assay Type: Sister-chromatid exchange (SCE) in vitro, Assay Code: SC1+, Evaluation Type: Evaluation B (Post-1980)): active; positive
- mutagenic call (Species/Cell Type: Mammalian polychromatic erythrocytes, Assay Type: Micronucleus test, chromosome aberrations, Assay Code: MNT+, Evaluation Type: Evaluation B (Post-1980)): active; positive
- mutagenic call (Species/Cell Type: Mouse, Sex: Male, Assay Type: Sperm morphology, Assay Code: SPI+, Evaluation Type: Evaluation A (Pre-1980)): active; positive
- call [2]: active; positive
- mutagenic call (Species/Cell Type: Nonhuman, Assay Type: Sister-chromatid exchange (SCE) in vitro, Assay Code: SC2+D, Dose Response: With dose response, Evaluation Type: Evaluation A (Pre-1980)): active; positive
- mutagenic call (Species/Cell Type: Nonhuman, Assay Type: Sister-chromatid exchange (SCE) in vivo, Assay Code: SC3+D, Dose Response: With dose response, Evaluation Type: Evaluation A (Pre-1980)): active; positive
- mutagenic call [9]: active; positive

Compound: OCC1=CCN2CC[C@H](O)[C@@H]12
- mutagenic call [8]: no conclusion

Compound: NC(=O)N(CCC[C@H](N)C(=O)O)N=O
- mutagenic call [9]: active; positive

Compound: O=NN(CCCCO)c1ccccc1
- mutagenic call (Species/Cell Type: Salmonella typhimurium (one or more of the five standard strains: TA98, TA100, TA1535, TA1537, and TA1538), Assay Type: Histidine reverse gene mutation, Ames assay, Assay Code: SALT, Evaluation Type: Evaluation A (Pre-1980)): no conclusion
